The values that follow come from patent publication US7585859B2, “PDE4B inhibitors and uses therefor” (Plexxikon, Inc., priority 2004, dated 2009).

As usually defined, the IC50 is the concentration that gives 50% inhibition.

Assay [1] concerns the target T1, full-length human PDE4D5 isozyme (Homo sapiens, UniProt Q08499).
T1 construct: The full-length human PDE4D5 isozyme; His6 (N); TEV cleavage site (N); made in house; host or cells: baculovirus infected insect cells (unpurified lysate)
The assay is described as follows: PDE4 IC50 determination by Scintillation Proximity Assay, PDE4D5. Type of assay: biochemical. The following applies: Table 1B, Formula I compounds; read-out: IC50 PDE4D5. In short, it runs like this: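 Unpurified His6-tagged full-length human PDE4D5 from baculovirus-infected insect cell lysate, 0.083 μl glycerol stock/ml, hydrolysed [3H]cAMP in Tris pH 7.5/MgCl/EGTA buffer, 30 min at 30°. ZnSO4/SPA beads stop; [3H]AMP counted. Controls: DMSO and roflumilast; 11-point duplicate curves, nonlinear-regression IC50.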
A general note: SPA uses beads or plates that emit light when radiolabelled molecules are held near them.

In assay [2] the target is T2, PDE4B: The catalytic domain of human PDE4B from S152-S528 (Homo sapiens, UniProt Q07343).
T2 construct: His6 (N); thrombin cleavage site (N); made in house; host or cells: E. coli
T2 sequence (Q07343 with tags, fused parts or gaps): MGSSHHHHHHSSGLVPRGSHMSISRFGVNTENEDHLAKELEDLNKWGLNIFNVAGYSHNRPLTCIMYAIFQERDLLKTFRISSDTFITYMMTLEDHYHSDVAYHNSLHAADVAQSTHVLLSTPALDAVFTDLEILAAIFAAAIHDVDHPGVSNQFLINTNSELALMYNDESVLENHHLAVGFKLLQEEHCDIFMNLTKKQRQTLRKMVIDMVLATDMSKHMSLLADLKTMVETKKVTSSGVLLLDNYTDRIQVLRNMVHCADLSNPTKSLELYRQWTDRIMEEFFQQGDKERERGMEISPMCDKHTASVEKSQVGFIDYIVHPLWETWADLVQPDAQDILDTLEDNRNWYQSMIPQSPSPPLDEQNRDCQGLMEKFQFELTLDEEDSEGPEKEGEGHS
Kind of assay: PDE4 IC50 determination by Scintillation Proximity Assay, PDE4B. Type of assay: biochemical. Conditions: Table 1B, Formula I compounds; read-out: IC50 PDE4B. The method, boiled down:
(§1)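 Enzyme was added to compound and [^3H]cAMP, then incubated 30 min at 30° (PDE4B 80 ng/ml; PDE4D 4 ng/ml). Product [^3H]AMP bound to SPA beads and was counted. IC50 was fitted by non-linear regression against DMSO and roflumilast controls.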

For assay [3], the system named is TNF alpha production in LPS-stimulated human blood (Buffy coat). Kind of assay: TNF alpha production by stimulation with LPS in whole blood cultures. Conditions: Homo sapiens; Table 1B, Formula I compounds; read-out: IC50 h TNFα. Type of assay: cell-based. How it is done:
Compounds were assayed to generate IC50 numbers as described in Example 54, using the following assay protocol (see Tables 3B and 4B for compounds and results).
Protocol • 1) Obtained 20 mM DMSO aliquots of desired concentrations of compounds (see Tables 3B and 4B for compounds tested and results). Placed 2 μl/well compound in DMSO in the top row of the dilution plate. Added 98 μl of RPMI 1640 media w/2.5% heat inactivated FBS.
2) Made the same media with 2% DMSO in it. Added 60 μl/well to well to make compound titration. Took 30 μl of top row and did a 1:3 dilution down the plate. In column 11 added 4 wells of 50 μM roflumilast and piclamilast. In column 12 added 2% DMSO media.
3) Transfered 20 μl/well into assay plates in duplicate.
4) Obtained human Buffy coat.
5) Diluted blood with 7 volumes of RPMI 1640 media with 1% P/S and 2.5% heat inactivated FBS (a 1:8 dilution)
6) Added160 μl/well of diluted blood to the assay plates.
7) Incubated for 1 hour at 37 degrees 5% CO2
8) Diluted LPS (which was already diluted to 1 mg/ml in PBS, 20 μl aliquots frozen −20 C.) to 10× desired final concentration to make a […] dilution (final concentration should be 100 ng/ml).
9) After 1 hour incubation added 20 μl/well of LPS to plates. A non-LPS treated background was also prepared. Samples were put on the shaker for a one minute 900 rpm.
10) Incubated for 4 hours in incubator.
11) After incubation, put on the shaker for a one minute 900 rpm and spun plate at 100 g for 10 minutes, Decel 5.
12) Carefully pipetted the top 75 μl supernatant into a new plate. Samples were frozen as needed.
Biosource hu-TNF ALPHA ELISA
• REAGENTS USED • DPBS 10×: VWR45000-428 (dilute 1:10 with Millipore Water) • TWEEN 20: FISHER BP337-500 • CAPTURE AND DETECTION ANTIBODIES: R&D DY510E • STREP-HRP: Biosource part SNN4004X • COLOR REAGENTS: R&D DY994 • STOP SOLUTION: from chemistry, or R&D DY999 • 1) Thawed samples to RT as needed. • 2) Added 50 μl Incubation buffer/well. • 3) Added 50 μl blood samples +50 μl Diluent buffer • 4) Incubated 2 hours at room temp. • 5) Washed the plate 4× with 300 μl/well wash buffer with microfill. Wash buffer was DPBS with 0.05% Tween pH 7.2-7.4 • 6) Added 100 μl biotinylated anti-TNFalpha • 7) Incubateed 1 hours at room temp. • 8) Washed the plate 4× with 300 μl/well wash buffer with microfill. Wash buffer was DPBS with 0.05% Tween pH 7.2-7.4 • 9) Added^100 μl Streptavidin-HRP working solution • 10) Incubated for 30 minutes at room temp. • 11) Washed the plate 4× with 300 μl/well wash buffer with microfill. Wash buffer was DPBS with 0.05% Tween pH 7.2-7.4 • 12) Added 100 μl Chromagen • 13) Incubated in the dark for 30 minutes until the blue color developed satisfactorily. • 14) Added 100 μl/well stop solution (2 N H2SO4). • 15) Read plate on WallacVictor at 450 nm for 0.1 sec/well

A further assay concerns the target T3, PDE4D (Homo sapiens, UniProt Q08499).
T3 construct: PDE4D: The catalytic domain of human PDE4B from S3 16-V692; His6 (N); thrombin cleavage site (N); made in house; host or cells: E. coli
Kind of assay: PDE4 IC50 determination by Scintillation Proximity Assay, PDE4D. Type of assay: biochemical. Conditions: Table 1B, Formula I compounds; read-out: IC50 PDE4D. In short, it runs like this:
as §1

Assay [4] addresses T4, full-length human PDE4B2 isozyme (Homo sapiens, UniProt Q07343).
T4 construct: The full-length human PDE4B2 isozyme; His6 (N); TEV cleavage site (N); made in house; host or cells: baculovirus infected insect cells (unpurified lysate)
The assay is described as follows: PDE4 IC50 determination by Scintillation Proximity Assay, PDE4B2. The assay is classed as biochemical. Conditions: Table 1B, Formula I compounds; read-out: IC50 PDE4B2. In short, it runs like this:
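Unpurified His6-TEV-tagged full-length human PDE4B2 from baculovirus-infected insect cell lysate (2.5 μl of 50% glycerol stock/ml) hydrolysed [3H]cAMP in 50 mM Tris pH 7.5, 8.3 mM MgCl, 1.7 mM EGTA, 0.01% BSA for 30 min at 30°. Stopped with SPA beads in 18 mM ZnSO4; [3H]AMP scintillation counted, IC50 by non-linear regression.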

T3 sequence (Q08499 380-756): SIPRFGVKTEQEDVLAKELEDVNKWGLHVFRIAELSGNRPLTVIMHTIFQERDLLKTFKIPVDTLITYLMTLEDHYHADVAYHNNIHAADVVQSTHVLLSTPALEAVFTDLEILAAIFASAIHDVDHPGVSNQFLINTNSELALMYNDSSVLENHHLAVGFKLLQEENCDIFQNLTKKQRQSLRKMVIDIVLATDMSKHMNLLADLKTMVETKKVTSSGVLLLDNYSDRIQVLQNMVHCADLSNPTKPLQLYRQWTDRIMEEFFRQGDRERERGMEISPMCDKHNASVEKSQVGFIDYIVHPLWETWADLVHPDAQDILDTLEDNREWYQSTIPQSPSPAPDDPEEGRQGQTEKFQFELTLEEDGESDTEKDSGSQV
T4 sequence (Q07343 1-564 isoform Q07343-2): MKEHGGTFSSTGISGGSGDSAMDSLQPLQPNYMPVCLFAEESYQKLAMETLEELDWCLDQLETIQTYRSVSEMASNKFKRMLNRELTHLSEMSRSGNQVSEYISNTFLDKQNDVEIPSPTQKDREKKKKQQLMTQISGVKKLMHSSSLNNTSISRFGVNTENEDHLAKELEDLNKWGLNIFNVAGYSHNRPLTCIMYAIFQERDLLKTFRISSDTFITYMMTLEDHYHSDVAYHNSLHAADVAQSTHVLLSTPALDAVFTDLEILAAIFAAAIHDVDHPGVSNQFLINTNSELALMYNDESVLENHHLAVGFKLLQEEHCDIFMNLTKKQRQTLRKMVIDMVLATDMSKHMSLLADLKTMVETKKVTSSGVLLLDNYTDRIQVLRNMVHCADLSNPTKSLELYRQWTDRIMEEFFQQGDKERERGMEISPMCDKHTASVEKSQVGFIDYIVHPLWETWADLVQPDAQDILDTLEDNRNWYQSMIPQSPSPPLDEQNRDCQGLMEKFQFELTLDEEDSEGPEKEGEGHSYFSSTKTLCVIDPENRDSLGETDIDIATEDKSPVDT
T1 sequence (Q08499 1-745 isoform Q08499-6): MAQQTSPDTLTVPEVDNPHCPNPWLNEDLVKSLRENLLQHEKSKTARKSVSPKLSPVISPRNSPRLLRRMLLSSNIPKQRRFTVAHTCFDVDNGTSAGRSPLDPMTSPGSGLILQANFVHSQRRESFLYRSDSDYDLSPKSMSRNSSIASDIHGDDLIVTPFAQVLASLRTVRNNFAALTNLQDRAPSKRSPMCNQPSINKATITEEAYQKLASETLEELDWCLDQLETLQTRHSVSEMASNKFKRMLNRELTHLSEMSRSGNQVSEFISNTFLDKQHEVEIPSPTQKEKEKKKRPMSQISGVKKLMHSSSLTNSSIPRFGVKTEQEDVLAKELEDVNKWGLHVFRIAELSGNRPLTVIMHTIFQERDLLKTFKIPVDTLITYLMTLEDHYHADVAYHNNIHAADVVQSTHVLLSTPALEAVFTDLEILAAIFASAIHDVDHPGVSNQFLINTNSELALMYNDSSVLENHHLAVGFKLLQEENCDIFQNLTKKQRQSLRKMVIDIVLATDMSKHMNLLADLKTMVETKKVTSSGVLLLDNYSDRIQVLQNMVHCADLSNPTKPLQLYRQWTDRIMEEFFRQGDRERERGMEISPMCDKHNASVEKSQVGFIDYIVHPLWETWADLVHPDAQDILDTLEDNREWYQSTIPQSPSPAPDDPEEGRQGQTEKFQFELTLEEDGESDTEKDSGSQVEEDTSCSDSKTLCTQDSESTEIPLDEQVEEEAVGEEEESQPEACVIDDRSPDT

Turning to `CCC(C)Nc1sc(C(=O)c2cc(-c3ccccc3)no2)c(N)c1C#N` (stereo not drawn) [Compound 1-222, 4-Amino-2-sec-butylamino-5-(3-phenyl-isoxazole-5-carbonyl)-thiophene-3-carbonitrile], the half-inhibitory concentration (IC50) in assay [1] is > 10 µM; in assay [2] it was < 10 µM; in assay [3], > 10 µM; on PDE4D, < 10 µM; in assay [4] it was < 10 µM.
For the compound `CC(C)CNc1sc(C(=O)c2cc(-c3ccccc3)no2)c(N)c1C#N` [Compound 1-209, 4-Amino-2-isobutylamino-5-(3-phenyl-isoxazole-5-carbonyl)-thiophene-3-carbonitrile], the IC50 in assay [1] was < 10 µM; in assay [2], < 10 µM; in assay [3], > 10 µM; on PDE4D, < 10 µM; in assay [4], < 10 µM.
Take `N#Cc1c(NC2CCCC2)sc(C(=O)c2cc(-c3ccc(N)cc3)no2)c1N` [Compound 1-250, 4-Amino-5-[3-(4-amino-phenyl)-isoxazole-5-carbonyl]-2-cyclopentylamino-thiophene-3-carbonitrile]: the half-maximal inhibitory concentration (IC50) in assay [1] is < 10 µM; in assay [2], < 10 µM; in assay [3] it was > 10 µM; on PDE4D, < 10 µM; in assay [4], < 10 µM.
For the compound `N#Cc1c(Nc2ccccc2)sc(C(=O)c2ccc(Cl)cc2)c1N` [Compound 1-20, 4-Amino-5-(4-chloro-benzoyl)-2-phenylamino-thiophene-3-carbonitrile], the concentration for half-maximal inhibition (IC50) (in assay [1]; in assay [2]; in assay [3]; on PDE4D; in assay [4]) was < 10 µM throughout.
As to `NC(=O)c1c(NC2CCCC2)sc(C(=O)c2cc(-c3ccc(N)cc3)no2)c1N` [Compound 1-253, 4-Amino-5-[3-(4-amino-phenyl)-isoxazole-5-carbonyl]-2-cyclopentylamino-thiophene-3-carboxylic acid amide], the half-maximal inhibitory concentration (IC50) in assay [1] was < 10 µM; in assay [2], < 10 µM; in assay [3] it was > 10 µM; on PDE4D it was < 10 µM; in assay [4], < 10 µM.
On to `CCC(C)Nc1sc(C(=O)c2cc(-c3ccc(Cl)c(Cl)c3)no2)c(N)c1C#N` (stereo not drawn) [Compound 1-247, 4-Amino-2-sec-butylamino-5-[3-(3,4-dichloro-phenyl)-isoxazole-5-carbonyl]-thiophene-3-carbonitrile], for which the IC50 is > 10 µM in assay [1]; < 10 µM in assay [2]; > 10 µM in assay [3]; > 10 µM at PDE4D; < 10 µM in assay [4].
Take `CCC(C)Nc1sc(C(=O)c2cc(-c3ccccc3)no2)c(N)c1C(N)=O` (stereo not drawn) [Compound 1-244, 4-Amino-2-sec-butylamino-5-(3-phenyl-isoxazole-5-carbonyl)-thiophene-3-carboxylic acid amide]: the IC50 (in assay [1]; in assay [2]; in assay [3]; on PDE4D; in assay [4]) was < 10 µM throughout.
`CC(C)C(C)Nc1sc(C(=O)c2cc(-c3ccccc3)no2)c(N)c1C#N` (stereo not drawn) [Compound 1-223, 4-Amino-2-(1,2-dimethyl-propylamino)-5-(3-phenyl-isoxazoie-5-carbonyl)-thiophene-3-carbonitrile]: the IC50 was > 10 µM in assay [1]; < 10 µM in assay [2]; > 10 µM in assay [3]; > 10 µM at PDE4D; < 10 µM in assay [4].
Consider `N#Cc1c(NC2CCCC2)sc(C(=O)c2cc(-c3ccc([N+](=O)[O-])cc3)no2)c1N` [Compound 1-220, 4-Amino-2-cyclopentylamino-5-[3-(4-nitro-phenyl)-isoxazole-5-carbonyl]-thiophene-3-carbonitrile], for which the half-inhibitory concentration (IC50) in assay [1] is > 10 µM; in assay [2], < 10 µM; in assay [3] it was > 10 µM; on PDE4D it was > 10 µM; in assay [4], < 10 µM.
Regarding `COc1ccc(OC)c(C(=O)c2sc(NC3CCCC3)c(C#N)c2N)c1` [Compound 1-40], the IC50 in assay [1] is < 10 µM; in assay [2] it was < 10 µM; in assay [3], > 10 µM; on PDE4D, < 10 µM; in assay [4] it was < 10 µM.
As for `CC(C)CNc1sc(C(=O)c2cc(-c3ccc(Cl)c(Cl)c3)no2)c(N)c1C(N)=O` [Compound 1-245, 4-Amino-5-[3-(3,4-dichloro-phenyl)-isoxazole-5-carbonyl]-2-isobutylamino-thiophene-3-carboxylic acid amide], the IC50 (in assay [1]; in assay [2]; in assay [3]; on PDE4D; in assay [4]) was < 10 µM throughout.
For `COc1ccc(Nc2sc(C(=O)c3ccccc3Cl)c(N)c2C#N)cc1` [Compound 1-110, 4-Amino-5-(2-chloro-benzoyl)-2-(4-methoxy-phenylamino)-thiophene-3-carbonitrile], the IC50 (in assay [1]; in assay [2]; in assay [3]; at PDE4D; in assay [4]) was < 10 µM each time.
On to `Cc1nc(-c2cnccn2)sc1C(=O)c1sc(NC2CCCC2)c(C#N)c1N` [Compound 1-219, 4-Amino-2-cyclopentylamino-5-(4-methyl-2-pyrazin-2-yl-thiazole-5-carbonyl)-thiophene-3-carbonitrile], for which the IC50 (in assay [1]; in assay [2]; in assay [3]; at PDE4D; in assay [4]) was < 10 µM each time.
As to `CC(C)Nc1sc(C(=O)c2cc(-c3ccc(Cl)c(Cl)c3)no2)c(N)c1C#N` [Compound 1-225], the IC50 in assay [1] was > 10 µM; in assay [2], < 10 µM; in assay [3], > 10 µM; on PDE4D it was > 10 µM; in assay [4], < 10 µM.
`CC(C)CNc1sc(C(=O)c2cc(-c3ccc(N)cc3)no2)c(N)c1C(N)=O` [Compound 1-254, 4-Amino-5-[3-(4-amino-phenyl)-isoxazole-5-carbonyl]-2-isobutylamino-thiophene-3-carboxylic acid amide]: the IC50 (in assay [1]; in assay [2]; in assay [3]; at PDE4D; in assay [4]) was < 10 µM in each case.
